The text below walks through data of ChEMBL document CHEMBL1148010, “Synthesis and biological evaluation of 2beta,3alpha-(substituted phenyl)nortropanes as potential norepinephrine transporter imaging agents” (Bioorg Med Chem Lett, 2007).

Series [1] deals with Monoamine transporters; Norepinephrine & dopamine (Homo sapiens, UniProt Q01959+P23975). Nature of the series: Selectivity of human NET over human DAT expressed in HEK293 cells. The format is cell-based.
The target of series [2] is Serotonin and norepinephrine transporters (SERT/NET) (Homo sapiens, UniProt P31645+P23975). Nature of the series: Selectivity of human NET over human SERT expressed in HEK293 cells. The format is cell-based.
Series [3] deals with Sodium-dependent noradrenaline transporter (Homo sapiens, UniProt P23975). In words: Displacement of [3H]nisoxetine from human NET expressed in HEK293 cells. The format is cell-based. A general note: In a radioligand displacement assay an active substance lowers the binding of a labelled ligand.
Sodium-dependent noradrenaline transporter, sequence (P23975 whole entry): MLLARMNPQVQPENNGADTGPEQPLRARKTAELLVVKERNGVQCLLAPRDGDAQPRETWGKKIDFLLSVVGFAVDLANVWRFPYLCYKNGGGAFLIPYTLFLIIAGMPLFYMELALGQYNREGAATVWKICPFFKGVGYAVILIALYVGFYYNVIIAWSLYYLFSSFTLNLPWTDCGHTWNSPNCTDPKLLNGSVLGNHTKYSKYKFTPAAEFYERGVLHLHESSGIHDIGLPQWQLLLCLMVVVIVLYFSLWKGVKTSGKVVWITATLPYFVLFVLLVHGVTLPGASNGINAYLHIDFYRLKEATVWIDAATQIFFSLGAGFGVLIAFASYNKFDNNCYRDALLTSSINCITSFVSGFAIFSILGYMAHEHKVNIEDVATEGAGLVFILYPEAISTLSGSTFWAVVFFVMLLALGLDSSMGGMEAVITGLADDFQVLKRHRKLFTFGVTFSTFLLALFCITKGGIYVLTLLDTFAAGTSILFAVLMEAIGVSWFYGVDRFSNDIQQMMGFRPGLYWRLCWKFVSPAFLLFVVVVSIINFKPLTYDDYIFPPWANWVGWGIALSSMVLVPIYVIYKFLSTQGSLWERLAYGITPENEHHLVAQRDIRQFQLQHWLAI
Series [4] deals with Sodium-dependent dopamine transporter (Homo sapiens, UniProt Q01959). Nature of the series: Displacement of [125I]RTI55 from human DAT expressed in HEK293 cells. The format is cell-based.
Sodium-dependent dopamine transporter, sequence (Q01959 whole entry): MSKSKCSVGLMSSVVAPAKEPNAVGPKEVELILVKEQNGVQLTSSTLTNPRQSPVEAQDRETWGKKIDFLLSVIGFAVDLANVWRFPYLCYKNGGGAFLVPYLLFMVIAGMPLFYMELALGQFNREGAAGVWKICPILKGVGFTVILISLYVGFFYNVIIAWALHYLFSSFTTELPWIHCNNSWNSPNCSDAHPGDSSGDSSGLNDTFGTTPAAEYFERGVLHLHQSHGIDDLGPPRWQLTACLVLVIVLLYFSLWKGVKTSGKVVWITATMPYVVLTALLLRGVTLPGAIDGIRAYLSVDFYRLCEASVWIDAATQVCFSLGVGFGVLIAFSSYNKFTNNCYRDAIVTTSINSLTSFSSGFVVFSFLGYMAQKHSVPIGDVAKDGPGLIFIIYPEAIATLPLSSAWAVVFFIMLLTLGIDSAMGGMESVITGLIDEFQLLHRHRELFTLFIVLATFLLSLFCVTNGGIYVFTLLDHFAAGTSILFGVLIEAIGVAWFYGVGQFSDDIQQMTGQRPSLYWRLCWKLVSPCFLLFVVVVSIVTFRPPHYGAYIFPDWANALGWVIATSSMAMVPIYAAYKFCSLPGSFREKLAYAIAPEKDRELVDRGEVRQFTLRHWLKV
The target in series [5] is Sodium-dependent serotonin transporter (Homo sapiens, UniProt P31645). Nature of the series: Displacement of [3H]citalopram from human SERT expressed in HEK293 cells. The format is cell-based.
Sodium-dependent serotonin transporter, sequence (P31645 whole entry): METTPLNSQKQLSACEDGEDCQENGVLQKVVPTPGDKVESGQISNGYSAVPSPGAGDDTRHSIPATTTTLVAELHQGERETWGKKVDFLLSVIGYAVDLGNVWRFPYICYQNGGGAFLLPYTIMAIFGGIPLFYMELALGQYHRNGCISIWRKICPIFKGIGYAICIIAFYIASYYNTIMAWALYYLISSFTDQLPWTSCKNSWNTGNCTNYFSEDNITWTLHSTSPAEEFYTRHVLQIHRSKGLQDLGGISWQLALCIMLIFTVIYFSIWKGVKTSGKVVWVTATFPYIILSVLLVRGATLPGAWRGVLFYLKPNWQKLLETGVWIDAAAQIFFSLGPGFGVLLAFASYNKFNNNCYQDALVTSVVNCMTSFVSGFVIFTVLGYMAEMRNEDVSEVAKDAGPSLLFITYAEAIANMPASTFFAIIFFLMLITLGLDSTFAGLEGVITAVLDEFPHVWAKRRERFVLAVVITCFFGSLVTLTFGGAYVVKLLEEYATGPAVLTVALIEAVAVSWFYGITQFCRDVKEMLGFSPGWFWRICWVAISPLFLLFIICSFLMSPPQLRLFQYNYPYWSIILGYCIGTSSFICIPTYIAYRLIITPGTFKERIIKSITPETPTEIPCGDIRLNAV
The nature of series [6]: Drug level in Rhesus monkey plasma assessed as unmetabolized fractions at 30 mins. The format is ADME, cell-free, Macaca mulatta. The note with it: read-out: Activity.
A short description of series [7]: Drug level in Rhesus monkey plasma assessed as unmetabolized fractions at 10 mins. Type of series: ADME, cell-free, Macaca mulatta. The note with it: read-out: Activity.
Series [8] is described as follows: Drug level in Rhesus monkey plasma assessed as unmetabolized fractions at 3 mins. The format is ADME, cell-free, Macaca mulatta. The note with it: read-out: Activity.

Turning to `C=Cc1ccc([C@@H]2C[C@H]3CC[C@@H](N3)[C@H]2C(=O)OC)cc1`, the “NET over DAT selectivity ratio (no unit)” value in series [1] worked out at 2.2 nM. Further, in series [2], the “NET over SERT selectivity ratio” value turned out to be 1.9 nM. The Ki in series [3] stood at 4.67 nM; in series [4] it was 10.1 nM; in series [5], 9.04 nM.
Regarding `Cc1ccc([C@@H]2C[C@H]3CC[C@@H](N3)[C@H]2C(=O)O[11CH3])cc1F`, the remaining at 0.5 h in series [6] was 1.6%. The remaining at 10 min in series [7] was 7.5%. Further, the remaining at 0.05 h in series [8] amounted to 25%.
In the case of `COC(=O)[C@@H]1[C@H]2CC[C@H](C[C@H]1c1ccc(C)c(F)c1)N2`, the “NET over DAT selectivity ratio (no unit)” value in series [1] is listed as 3.6 nM. For the same compound, in series [2], the “NET over SERT selectivity ratio” value is 24 nM. The figures for the Ki in series [3], in series [4] and in series [5] were 1.78 nM, 6.42 nM and 42.8 nM, respectively.
Taken in the same sequence, the figures for `COC(=O)[C@@H]1[C@H]2CC[C@H](C[C@H]1c1ccc(I)cc1)N2` were 1.1 nM, 2.1 nM, 1.98 nM, 2.25 nM and 4.16 nM.
Taken in the same sequence, the figures for `C#Cc1ccc([C@@H]2C[C@H]3CC[C@@H](N3)[C@H]2C(=O)OC)cc1` were 1.2 nM, 1.8 nM, 1.86 nM, 2.26 nM and 3.45 nM.
For the compound `COC(=O)[C@@H]1[C@H]2CC[C@H](C[C@H]1c1ccc(C)cc1)N2`, in series [1], the “NET over DAT selectivity ratio (no unit)” value is 2.3 nM. Besides, the “NET over SERT selectivity ratio” value in series [2] is recorded as 28 nM. Moreover, the values for the Ki in series [3], in series [4] and in series [5] were 4.88 nM, 11.5 nM and 136 nM, respectively.

What is called Ki is a measure of affinity in units of concentration, obtained from inhibition or displacement.
